Literature values, collected in patent US20230210937A1, “COMPOSITIONS AND METHODS FOR THE TREATMENT AND/OR PROPHYLAXIS OF DIABETES AND OTHER CONDITIONS” (LIFELOCK BIOSCIENCE SOLUTIONS INC., priority 2019, published 2023).
One block for each compound: values may come before it.

Tests used:
[1] = tested on: colon cancer cell line Caco-2
PAK1 = PAK1 (Rattus norvegicus, UniProt P35465); details: skeletal muscle cells, co-immunoprecipitation
mTORC1 = mTORC1 (Homo sapiens, UniProt P42345)
[2] = Caco-2, 100 ng/mL PMA, 2.5 mM IP6

Sequence of PAK1 (P35465 2-544 limits assumed): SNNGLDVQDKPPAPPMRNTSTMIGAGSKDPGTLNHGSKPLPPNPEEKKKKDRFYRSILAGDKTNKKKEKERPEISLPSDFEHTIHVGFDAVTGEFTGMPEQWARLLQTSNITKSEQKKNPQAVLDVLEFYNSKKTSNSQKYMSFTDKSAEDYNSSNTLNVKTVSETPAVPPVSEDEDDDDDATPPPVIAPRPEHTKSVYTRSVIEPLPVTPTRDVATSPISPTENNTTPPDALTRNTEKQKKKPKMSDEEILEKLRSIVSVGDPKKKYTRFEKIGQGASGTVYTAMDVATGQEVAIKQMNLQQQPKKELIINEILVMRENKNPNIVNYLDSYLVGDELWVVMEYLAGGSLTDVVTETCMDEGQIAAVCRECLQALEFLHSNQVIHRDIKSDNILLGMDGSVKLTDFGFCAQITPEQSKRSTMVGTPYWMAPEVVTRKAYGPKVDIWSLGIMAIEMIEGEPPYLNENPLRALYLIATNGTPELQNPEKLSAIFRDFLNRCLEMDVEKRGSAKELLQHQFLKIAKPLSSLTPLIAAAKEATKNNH

Structure (SMILES): O=P(O)(O)OC1C(OP(=O)(O)O)C(OP(=O)(O)O)C(OP(=O)(O)O)C(OP(=O)(O)O)C1OP(=O)(O)O [IP6, (1R,2S,3R,4R,5S,6s)-cyclohexane-1,2,3,4,5,6-hexayl hexakis[dihydrogen (phosphate)]]
- MMP-1 expression, PMA and IP6 in comparison to PMA-stimulated cells [1, 2]: significant decrease
- MMP-9 transcription induced by PMA [1, 2]: down-regulated
- level of both MMP-2 and MMP-3 mRNAs in PMA-stimulated cells [1, 2]: decreased
- MMP-2, MMP-3, MMP-10, MMP-13, and TIMP-1 expression ([1]; Caco-2, 2.5 mM of IP6, 6 and 12 h): significant decrease

- insulin-stimulated associations of p41ARC, N-WASP, cortactin and actin (PAK1): ablated
Structure (SMILES): Oc1ccc2ccccc2c1SSc1c(O)ccc2ccccc12 [IPA3]

- TSC1/2 interaction (mTORC1): did not alter
- raptor-mTOR association (mTORC1; leading to inhibition of mTORC1 activity): able to dissociate raptor from mTOR
- phosphorylation of p70S6kinase 1 (S6K1) and 4E-BP1 (mTORC1; numerous cancer cell lines): inhibits
Structure (SMILES): COc1cc(/C=C/C(=O)CC(=O)/C=C/c2ccc(O)c(OC)c2)ccc1O [curcumin, (1E,6E)-1,7-Bis(4-hydroxy-3-methoxyphenyl)hepta-1,6-diene-3,5-dione]
